Where two headings read alike, the source gives them in different places.
Tests used:
MCL-1 = MCL-1 (Homo sapiens (Human), UniProt Q07820); test: Cell free Mcl-1:Bim affinity assay (fluorescence polarization competition); assay type: binding; settings: 15 nM MCL-1, 5 nM FITC-Bim, 1 hour at room temperature, read-out: BIM_Ki
In short: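 Fluorescence polarization competition: 10-point 3-fold compound dilutions displaced 5 nM FITC-Bim from 15 nM MCL-1 over 1 h at room temperature. Ki was derived from the fitted IC50 using the Nikolovska-Coleska equation, with percent inhibition normalized to DMSO and positive controls.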

H929 cells = test: Cell viability assay (H929 10 FBS); assay type: cell-based; settings: Homo sapiens, NCI-H929, 24 hours, read-out: H929_10FBS IC50
In short: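 ATP-based luminescence (CellTiter-Glo or ATPlite 1 Step, 30-60 min at RT) gauged viability of H929 myeloma cells after 24 h compound treatment at 37 °C. Cells plated at 4000 per well in 10% FBS RPMI 1640 supplemented with pyruvate, HEPES and glucose.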

Chain of MCL-1 (Q07820 whole entry): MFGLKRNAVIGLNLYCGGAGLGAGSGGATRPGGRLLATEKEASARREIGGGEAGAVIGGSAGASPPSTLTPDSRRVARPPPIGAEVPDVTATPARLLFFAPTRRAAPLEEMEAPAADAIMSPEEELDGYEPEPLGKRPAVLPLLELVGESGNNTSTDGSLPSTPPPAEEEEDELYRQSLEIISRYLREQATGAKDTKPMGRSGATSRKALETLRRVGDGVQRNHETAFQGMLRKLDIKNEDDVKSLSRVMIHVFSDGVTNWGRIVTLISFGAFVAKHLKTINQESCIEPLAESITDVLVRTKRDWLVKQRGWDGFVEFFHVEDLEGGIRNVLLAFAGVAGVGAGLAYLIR

O=C(N[C@H]1CCOC1)O[C@H]1/C=C/COC2(CCC2)C(=O)NS(=O)(=O)c2ccc3c(c2)N(C[C@@H]2CC[C@H]21)C[C@@]1(CCCc2cc(Cl)ccc21)CO3 [Example 237, [(3R,6R,7S,8E,22S)-6′-Chloro-12,12-(1,3-propylene)-13,15,15-trioxo-spiro[11,20-dioxa-15-thia-1,14-diazatetracyclo[14.7.2.03,6.019,24]pentacosa-8,16(25),17,19(24)-tetraene-22,1′-tetralin]-7-yl] N-[(3S)-tetrahydrofuran-3-yl]carbamate]
Ki (MCL-1; class symbols): < 1 nM
IC50 (H929 cells): < 500 nM

CN(C)C(=O)CO[C@H]1/C=C/COC2(CC2)C(=O)NS(=O)(=O)c2ccc3c(c2)N(C[C@@H]2CC[C@H]21)C[C@@]1(CCCc2cc(Cl)ccc21)CO3 [Example 142, 2-[(3R,6R,7S,8E,22S)-6′-Chloro-12,12-ethylene-13,15,15-trioxo-spiro[11,20-dioxa-15-thia-1,14-diazatetracyclo[14.7.2.03,6.019,24]pentacosa-8,16,18,24-tetraene-22,1′-tetralin]-7-yl]oxy-N,N-dimethyl-acetamide]
Ki (MCL-1; class symbols): < 1 nM
IC50 (H929 cells): < 1000 nM

CN1C/C=C/[C@H](OC(=O)N[C@H]2CCOC2)[C@@H]2CC[C@H]2CN2C[C@@]3(CCCc4cc(Cl)ccc43)COc3ccc(cc32)S(=O)(=O)NC(=O)C1(C)C [Example 212, [(3R,6R,7S,8E,22S)-6′-Chloro-11,12,12-trimethyl-13,15,15-trioxo-spiro[20-oxa-15-thia-1,11,14-triazatetracyclo[14.7.2.03,6.019,24]pentacosa-8,16,18,24-tetraene-22,1′-tetralin]-7-yl] N-[(3S)-tetrahydrofuran-3-yl]carbamate]
Ki (MCL-1; class symbols): < 1 nM
IC50 (H929 cells): < 500 nM

[2H]C([2H])([2H])N(C(=O)O[C@H]1/C=C/COC(C)(C)C(=O)NS(=O)(=O)c2ccc3c(c2)N(C[C@@H]2CC[C@H]21)C[C@@]1(CCCc2cc(Cl)ccc21)CO3)C([2H])([2H])[2H] [Example 47, [(3R,6R,7S,8E,22S)-6′-Chloro-12,12-dimethyl-13,15,15-trioxo-spiro[11,20-dioxa-thia-1,14-diazatetracyclo[14.7.2.03,6.019,24]pentacosa-8,16,18,24-tetraene-22,1′-tetralin]-7-yl] N,N-bis(trideuteriomethyl)carbamate]
Ki (MCL-1; class symbols): < 1 nM
IC50 (H929 cells): < 500 nM

O=C(Cc1nccs1)NS(=O)(=O)c1ccc2c(c1)N(CC1CCC1)C[C@@]1(CCCc3cc(Cl)ccc31)CO2 [Example 16, N-[(3S)-6′-Chloro-5-(cyclobutylmethyl)spiro[2,4-dihydro-1,5-benzoxazepine-3,1′-tetralin]-7-yl]sulfonyl-2-thiazol-2-yl-acetamide]
Ki (MCL-1; numeric values): 9 nM
IC50 (H929 cells): > 1000 nM

CONC(=O)O[C@H]1/C=C/COC(C)(C)C(=O)NS(=O)(=O)c2ccc3c(c2)N(C[C@@H]2CC[C@H]21)C[C@@]1(CCCc2cc(Cl)ccc21)CO3 [Example 167, [(3R,6R,7S,8E,22S)-6′-Chloro-12,12-dimethyl-13,15,15-trioxo-spiro[11,20-dioxa-15-thia-1,14-diazatetracyclo[14.7.2.03,6.019,24]pentacosa-8,16,18,24-tetraene-22,1′-tetralin]-7-yl] N-methoxycarbamate]
Ki (MCL-1; class symbols): < 1 nM
IC50 (H929 cells): < 500 nM

CN(C(=O)O[C@H]1/C=C/COC2(CCC2)C(=O)NS(=O)(=O)c2ccc3c(c2)N(C[C@@H]2CC[C@H]21)C[C@@]1(CCCc2cc(Cl)ccc21)CO3)C1CCOCC1 [Example 236, [(3R,6R,7S,8E,22S)-6′-Chloro-12,12-(1,3-propylene)-13,15,15-trioxo-spiro[11,20-dioxa-15-thia-1,14-diazatetracyclo[14.7.2.03,6.019,24]pentacosa-8,16,18,24-tetraene-22,1′-tetralin]-7-yl] N-methyl-N-tetrahydropyran-4-yl-carbamate]
Ki (MCL-1; class symbols): < 1 nM
IC50 (H929 cells): < 500 nM

CC1(C)OC/C=C/[C@H](OC(=O)N2CC(F)(F)C2)[C@@H]2CC[C@H]2CN2C[C@@]3(CCCc4cc(Cl)ccc43)COc3ccc(cc32)S(=O)(=O)NC1=O [Example 49, [(3R,6R,7S,8E,22S)-6′-Chloro-12,12-dimethyl-13,15,15-trioxo-spiro[11,20-dioxa-15-thia-1,14-diazatetracyclo[14.7.2.03,6.019,24]pentacosa-8,16,18,24-tetraene-22,1′-tetralin]-7-yl] 3,3-difluoroazetidine-1-carboxylate]
Ki (MCL-1; class symbols): < 1 nM
IC50 (H929 cells): < 500 nM

CN1C(=O)OC[C@@H]2CC[C@H]2CN2C[C@@]3(CCCc4cc(Cl)ccc43)COc3ccc(cc32)S(=O)(=O)NC(=O)N2CC[C@@H]1C2 [Example 101, (3R,6R,11R,24S)-6′-Chloro-10-methyl-17,17-dioxo-spiro[8,22-dioxa-17-thia-1,10,14,16-tetrazapentacyclo[16.7.2.111,14.03,6.021,26]octacosa-18(27),19,21(26)-triene-24,1′-tetralin]-9,15-dione]
Ki (MCL-1; class symbols): < 1 nM
IC50 (H929 cells): > 1000 nM

CN1CCCN(C(=O)O[C@H]2/C=C/COC(C)(C)C(=O)NS(=O)(=O)c3ccc4c(c3)N(C[C@@H]3CC[C@H]32)C[C@@]2(CCCc3cc(Cl)ccc32)CO4)CC1 [Example 54, [(3R,6R,7S,8E,22S)-6′-Chloro-12,12-dimethyl-13,15,15-trioxo-spiro[11,20-dioxa-15-thia-1,14-diazatetracyclo[14.7.2.03,6.019,24]pentacosa-8,16,18,24-tetraene-22,1′-tetralin]-7-yl] 4-methyl-1,4-diazepane-1-carboxylate]
Ki (MCL-1; class symbols): < 1 nM
IC50 (H929 cells): < 500 nM

CN(C)CCO[C@H]1/C=C/COC(C)(C)C(=O)NS(=O)(=O)c2ccc3c(c2)N(C[C@@H]2CC[C@H]21)C[C@@]1(CCCc2cc(Cl)ccc21)CO3 [Example 65, (3R,6R,7S,8E,22S)-6′-Chloro-7-[2-(dimethylamino)ethoxy]-12,12-dimethyl-15,15-dioxo-spiro[11,20-dioxa-15-thia-1,14-diazatetracyclo[14.7.2.03,6.019,24]pentacosa-8,16,18,24-tetraene-22,1′-tetralin]-13-one]
Ki (MCL-1; class symbols): < 1 nM
IC50 (H929 cells): < 500 nM

CC1(C)OC/C=C/[C@H](OC(=O)NC2COC2)[C@@H]2CC[C@H]2CN2C[C@@]3(CCCc4cc(Cl)ccc43)COc3ccc(cc32)S(=O)(=O)NC1=O [Example 192, [(3R,6R,7S,8E,22S)-6′-Chloro-12,12-dimethyl-13,15,15-trioxo-spiro[11,20-dioxa-15-thia-1,14-diazatetracyclo[14.7.2.03,6.019,24]pentacosa-8,16,18,24-tetraene-22,1′-tetralin]-7-yl] N-(oxetan-3-yl)carbamate]
Ki (MCL-1; class symbols): < 1 nM
IC50 (H929 cells): < 500 nM

CC1(C)OC/C=C/[C@H](OC(=O)N2CCC(F)(F)C2)[C@@H]2CC[C@H]2CN2C[C@@]3(CCCc4cc(Cl)ccc43)COc3ccc(cc32)S(=O)(=O)NC1=O [Example 166, [(3R,6R,7S,8E,22S)-6′-Chloro-12,12-dimethyl-13,15,15-trioxo-spiro[11,20-dioxa-15-thia-1,14-diazatetracyclo[14.7.2.03,6.019,24]pentacosa-8,16,18,24-tetraene-22,1′-tetralin]-7-yl] 3,3-difluoropyrrolidine-1-carboxylate]
Ki (MCL-1; class symbols): < 1 nM
IC50 (H929 cells): < 500 nM

CC(C)CNC(=O)O[C@H]1/C=C/COC(C)(C)C(=O)NS(=O)(=O)c2ccc3c(c2)N(C[C@@H]2CC[C@H]21)C[C@@]1(CCCc2cc(Cl)ccc21)CO3 [Example 182, [(3R,6R,7S,8E,22S)-6′-Chloro-12,12-dimethyl-13,15,15-trioxo-spiro[11,20-dioxa-15-thia-1,14-diazatetracyclo[14.7.2.03,6.019,24]pentacosa-8,16,18,24-tetraene-22,1′-tetralin]-7-yl] N-isobutylcarbamate]
Ki (MCL-1; class symbols): < 1 nM
IC50 (H929 cells): < 500 nM

CN(C(=O)O[C@H]1/C=C/COC(C)(C)C(=O)NS(=O)(=O)c2ccc3c(c2)N(C[C@@H]2CC[C@H]21)C[C@@]1(CCCc2cc(Cl)ccc21)CO3)[C@H]1CCOC1 [Example 202, [(3R,6R,7S,8E,22S)-6′-Chloro-12,12-dimethyl-13,15,15-trioxo-spiro[11,20-dioxa-15-thia-1,14-diazatetracyclo[14.7.2.03,6.019,24]pentacosa-8,16,18,24-tetraene-22,1′-tetralin]-7-yl] N-methyl-N-[(3S)-tetrahydrofuran-3-yl]carbamate]
Ki (MCL-1; class symbols): < 1 nM
IC50 (H929 cells): < 500 nM

CO[C@@H]1/C=C/CCC(=O)NS(=O)(=O)c2ccc3c(c2)N(C[C@@H]2CC[C@H]21)C[C@@]1(CCCc2cc(Cl)ccc21)CO3 [Example 74, (3R,6R,7R,8E,21S)-6′-Chloro-7-methoxy-14,14-dioxo-spiro[19-oxa-14-thia-1,13-diazatetracyclo[13.7.2.03,6.018,23]tetracosa-8,15,17,23-tetraene-21,1′-tetralin]-12-one]
Ki (MCL-1; class symbols): < 1 nM
IC50 (H929 cells): > 1000 nM

CCN1C/C=C/[C@H](OC(=O)N2CCOCC2)[C@@H]2CC[C@H]2CN2C[C@@]3(CCCc4cc(Cl)ccc43)COc3ccc(cc32)S(=O)(=O)NC(=O)C1(C)C [Example 221, [(3R,6R,7S,8E,22S)-6′-Chloro-11-ethyl-12,12-dimethyl-13,15,15-trioxo-spiro[20-oxa-15-thia-1,11,14-triazatetracyclo[14.7.2.03,6.019,24]pentacosa-8,16,18,24-tetraene-22,1′-tetralin]-7-yl]morpholine-4-carboxylate]
Ki (MCL-1; class symbols): < 1 nM
IC50 (H929 cells): < 500 nM
